Data from paper PMC12250628, “Pharmacokinetics of Cannabidiol in Rat Brain Tissue After Single-Dose Administration of Different Formulations” (Molecules, 2025).

How the values were obtained:
[1] = Locomotor behavior and cognitive performance of the studied animals after CBD administration; assay type: in vivo, rat; settings: rats, single oral dose of 10 mg/kg CBD
[2] = parameters: method as in PMID 34330718, PMID 28861484; settings: phase I CBD metabolites; cited from earlier work

| Structure (SMILES) | impact on locomotor behavior and cognitive performance [1] | pharmacological activity [2] |
| --- | --- | --- |
| C=C(C)[C@@H]1CCC(C)=C[C@H]1c1c(O)cc(CCCCC)cc1O [CBD, cannabidiol] | no negative impacts on locomotor behavior and cognitive performance |  |
| C=C(C)[C@@H]1CCC(C(=O)O)=C[C@H]1c1c(O)cc(CCCCC)cc1O [Carrier 7-COOH-CBD, 7-carboxy-cannabidiol] |  | does not exhibit such activity anymore |
| C=C(C)[C@@H]1CCC(CO)=C[C@H]1c1c(O)cc(CCCCC)cc1O [Carrier 7-OH-CBD, 7-hydroxy-cannabidiol] |  | pharmacologically active |
